Data reported in patent US20240238242A1, “EGCG buccal tablet and use thereof” (priority 2023, published 2024).
Like-named read-outs stand apart in the source and are kept apart here.

System: Novel enterovirus D68 (EV-D68)
Type: cell-based
Conditions: for CPE test per cell well: first experiment; for CPE test (virus replication in cell wells) / CPE test (virus replication in the cell wells): wells 1-10; for average inactivation efficiency against virus: 0.2 mM EGCG, EV-D68 virus, three experiments

O=C(O[C@@H]1Cc2c(O)cc(O)cc2O[C@@H]1c1cc(O)c(O)c(O)c1)c1cc(O)c(O)c(O)c1 [EGCG, Epigallocatechin gallate]
−: CPE test per cell well (0.2 mM EGCG + EV-D68 virus, 1 minute, dilution factor 10^8, wells 1-10) | CPE test (virus replication in cell wells) (0.2 mM EGCG + EV-D68 virus, co-incubated 5 minute, third experiment, dilution factor 10^7) | CPE test (virus replication in cell wells) (0.2 mM EGCG + EV-D68 virus, co-incubated 5 minute, third experiment, dilution factor 10^8) | CPE test (virus replication in cell wells) (0.2 mM EGCG + virus, 1 minute, dilution factor 10^8, second experiment) | CPE test (virus replication in cell wells) (0.2 mM EGCG + virus, 1 minute, dilution factor 10^8, third experiment) | CPE test (virus replication in the cell wells) (0.2 mM EGCG + virus, co-incubated 5 minute, dilution factor 10^7, first experiment) | CPE test (virus replication in the cell wells) (0.2 mM EGCG + virus, co-incubated 5 minute, dilution factor 10^7, second experiment) | CPE test (virus replication in the cell wells) (0.2 mM EGCG + virus, co-incubated 5 minute, dilution factor 10^8, first experiment) | CPE test (virus replication in the cell wells) (0.2 mM EGCG + virus, co-incubated 5 minute, dilution factor 10^8, second experiment) | CPE test per cell well (1 mM EGCG + EV-D68 virus, 1 minute, dilution factor 10^7, wells 1-10) | CPE test per cell well (1 mM EGCG + EV-D68 virus, 1 minute, dilution factor 10^8, wells 1-10) | CPE test (virus replication in cell wells) (1 mM EGCG + EV-D68 virus, co-incubated 5 minute, third experiment, dilution factor 10^7) | CPE test (virus replication in cell wells) (1 mM EGCG + EV-D68 virus, co-incubated 5 minute, third experiment, dilution factor 10^8)
12.30%: average inactivation efficiency against virus (1 minute)
− and +: CPE test per cell well (0.2 mM EGCG + EV-D68 virus, 1 minute, dilution factor 10^6, wells 1-10) | CPE test per cell well (0.2 mM EGCG + EV-D68 virus, 1 minute, dilution factor 10^7, wells 1-10) | CPE test (virus replication in cell wells) (0.2 mM EGCG + virus, 1 minute, dilution factor 10^6, second experiment) | CPE test (virus replication in cell wells) (0.2 mM EGCG + virus, 1 minute, dilution factor 10^6, third experiment) | CPE test (virus replication in cell wells) (0.2 mM EGCG + virus, 1 minute, dilution factor 10^7, second experiment) | CPE test (virus replication in cell wells) (0.2 mM EGCG + virus, 1 minute, dilution factor 10^7, third experiment) | CPE test (virus replication in the cell wells) (0.2 mM EGCG + virus, co-incubated 5 minute, dilution factor 10^6, first experiment)
+ and −: CPE test (virus replication in cell wells) (0.2 mM EGCG + EV-D68 virus, co-incubated 5 minute, third experiment, dilution factor 10^6) | CPE test (virus replication in the cell wells) (0.2 mM EGCG + virus, co-incubated 5 minute, dilution factor 10^6, second experiment) | CPE test per cell well (1 mM EGCG + EV-D68 virus, 1 minute, dilution factor 10^6, wells 1-10) | CPE test (virus replication in cell wells) (1 mM EGCG + EV-D68 virus, co-incubated 5 minute, third experiment, dilution factor 10^6)
35.78%: average inactivation efficiency against virus (5 minutes)
+: CPE test per cell well (0.2 mM EGCG + EV-D68 virus, 1 minute, dilution factor 10^1, wells 1-10) | CPE test per cell well (0.2 mM EGCG + EV-D68 virus, 1 minute, dilution factor 10^2, wells 1-10) | CPE test per cell well (0.2 mM EGCG + EV-D68 virus, 1 minute, dilution factor 10^3, wells 1-10) | CPE test per cell well (0.2 mM EGCG + EV-D68 virus, 1 minute, dilution factor 10^4, wells 1-10) | CPE test per cell well (0.2 mM EGCG + EV-D68 virus, 1 minute, dilution factor 10^5, wells 1-10) | CPE test (virus replication in cell wells) (0.2 mM EGCG + EV-D68 virus, co-incubated 5 minute, third experiment, dilution factor 10^1) | CPE test (virus replication in cell wells) (0.2 mM EGCG + EV-D68 virus, co-incubated 5 minute, third experiment, dilution factor 10^2) | CPE test (virus replication in cell wells) (0.2 mM EGCG + EV-D68 virus, co-incubated 5 minute, third experiment, dilution factor 10^3) | CPE test (virus replication in cell wells) (0.2 mM EGCG + EV-D68 virus, co-incubated 5 minute, third experiment, dilution factor 10^4) | CPE test (virus replication in cell wells) (0.2 mM EGCG + EV-D68 virus, co-incubated 5 minute, third experiment, dilution factor 10^5) | CPE test (virus replication in cell wells) (0.2 mM EGCG + virus, 1 minute, dilution factor 10^1, second experiment) | CPE test (virus replication in cell wells) (0.2 mM EGCG + virus, 1 minute, dilution factor 10^1, third experiment) | CPE test (virus replication in cell wells) (0.2 mM EGCG + virus, 1 minute, dilution factor 10^2, second experiment) | CPE test (virus replication in cell wells) (0.2 mM EGCG + virus, 1 minute, dilution factor 10^2, third experiment) | CPE test (virus replication in cell wells) (0.2 mM EGCG + virus, 1 minute, dilution factor 10^3, second experiment) | CPE test (virus replication in cell wells) (0.2 mM EGCG + virus, 1 minute, dilution factor 10^3, third experiment) | CPE test (virus replication in cell wells) (0.2 mM EGCG + virus, 1 minute, dilution factor 10^4, second experiment) | CPE test (virus replication in cell wells) (0.2 mM EGCG + virus, 1 minute, dilution factor 10^4, third experiment) | CPE test (virus replication in cell wells) (0.2 mM EGCG + virus, 1 minute, dilution factor 10^5, second experiment) | CPE test (virus replication in cell wells) (0.2 mM EGCG + virus, 1 minute, dilution factor 10^5, third experiment) | CPE test (virus replication in the cell wells) (0.2 mM EGCG + virus, co-incubated 5 minute, dilution factor 10^1, first experiment) | CPE test (virus replication in the cell wells) (0.2 mM EGCG + virus, co-incubated 5 minute, dilution factor 10^1, second experiment) | CPE test (virus replication in the cell wells) (0.2 mM EGCG + virus, co-incubated 5 minute, dilution factor 10^2, first experiment) | CPE test (virus replication in the cell wells) (0.2 mM EGCG + virus, co-incubated 5 minute, dilution factor 10^2, second experiment) | CPE test (virus replication in the cell wells) (0.2 mM EGCG + virus, co-incubated 5 minute, dilution factor 10^3, first experiment) | CPE test (virus replication in the cell wells) (0.2 mM EGCG + virus, co-incubated 5 minute, dilution factor 10^3, second experiment) | CPE test (virus replication in the cell wells) (0.2 mM EGCG + virus, co-incubated 5 minute, dilution factor 10^4, first experiment) | CPE test (virus replication in the cell wells) (0.2 mM EGCG + virus, co-incubated 5 minute, dilution factor 10^4, second experiment) | CPE test (virus replication in the cell wells) (0.2 mM EGCG + virus, co-incubated 5 minute, dilution factor 10^5, first experiment) | CPE test (virus replication in the cell wells) (0.2 mM EGCG + virus, co-incubated 5 minute, dilution factor 10^5, second experiment) | CPE test per cell well (1 mM EGCG + EV-D68 virus, 1 minute, dilution factor 10^1, wells 1-10) | CPE test per cell well (1 mM EGCG + EV-D68 virus, 1 minute, dilution factor 10^2, wells 1-10) | CPE test per cell well (1 mM EGCG + EV-D68 virus, 1 minute, dilution factor 10^3, wells 1-10) | CPE test per cell well (1 mM EGCG + EV-D68 virus, 1 minute, dilution factor 10^4, wells 1-10) | CPE test per cell well (1 mM EGCG + EV-D68 virus, 1 minute, dilution factor 10^5, wells 1-10) | CPE test (virus replication in cell wells) (1 mM EGCG + EV-D68 virus, co-incubated 5 minute, third experiment, dilution factor 10^1) | CPE test (virus replication in cell wells) (1 mM EGCG + EV-D68 virus, co-incubated 5 minute, third experiment, dilution factor 10^2) | CPE test (virus replication in cell wells) (1 mM EGCG + EV-D68 virus, co-incubated 5 minute, third experiment, dilution factor 10^3) | CPE test (virus replication in cell wells) (1 mM EGCG + EV-D68 virus, co-incubated 5 minute, third experiment, dilution factor 10^4) | CPE test (virus replication in cell wells) (1 mM EGCG + EV-D68 virus, co-incubated 5 minute, third experiment, dilution factor 10^5) | CPE test (virus replication in cell wells) (1 mM EGCG + virus, 1 minute, dilution factor 10^1, second experiment) | CPE test (virus replication in cell wells) (1 mM EGCG + virus, 1 minute, dilution factor 10^1, third experiment) | CPE test (virus replication in cell wells) (1 mM EGCG + virus, 1 minute, dilution factor 10^2, second experiment) | CPE test (virus replication in cell wells) (1 mM EGCG + virus, 1 minute, dilution factor 10^2, third experiment) | CPE test (virus replication in cell wells) (1 mM EGCG + virus, 1 minute, dilution factor 10^3, second experiment) | CPE test (virus replication in cell wells) (1 mM EGCG + virus, 1 minute, dilution factor 10^3, third experiment) | CPE test (virus replication in cell wells) (1 mM EGCG + virus, 1 minute, dilution factor 10^4, second experiment)
